Measured values: ChEMBL document CHEMBL1201862, “PubChem BioAssay data set” (2004)
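Five compound concentrations were applied to cells in 96-well plates for 48 hours; endpoints were derived by simple linear interpolation of the resulting dose-response curve. GI50: concentration for 50% inhibition of growth.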 Activity calls are given as the source filed them. Cut-off read from the data, not from the text of the source: active = GI50 up to about 1.1 µM and inactive = higher.

Tests used:
Test in all cases: inhibition of tumour cell growth, NCI panel, 48 h
[1] = system: 786-0
[2] = system: A498
[3] = system: A549
[4] = system: ACHN
[5] = system: CAKI-1
[6] = system: CCRF-CEM
[7] = system: COLO 205
[8] = system: DLD-1
[9] = system: DMS-114
[10] = system: DMS-273
[11] = system: EKVX
[12] = system: HCC 2998
[13] = system: HCT-116
[14] = system: HCT-15
[15] = system: HL-60
[16] = system: HOP-18
[17] = system: HOP-62
[18] = system: HOP-92
[19] = system: HT-29
[20] = system: IGROV-1
[21] = system: K562
[22] = system: KM-20L2
[23] = system: KM12
[24] = system: LOX IMVI
[25] = system: LXFL 529
[26] = system: M14
[27] = system: M19-MEL
[28] = system: MOLT-4
[29] = system: Malme-3M
[30] = system: NCI-H226
[31] = system: NCI-H23
[32] = system: NCI-H460
[33] = system: NCI-H522
[34] = system: OVCAR-3
[35] = system: OVCAR-4
[36] = system: OVCAR-5
[37] = system: OVCAR-8
[38] = system: RPMI-8226
[39] = system: RXF 393
[40] = system: RXF 631
[41] = system: SF-268
[42] = system: SF-295
[43] = system: SF-539
[44] = system: SK-MEL-28
[45] = system: SK-MEL-2
[46] = system: SK-MEL-5
[47] = system: SK-OV-3
[48] = system: SN12C
[49] = system: SNB-19
[50] = system: SNB-75
[51] = system: SNB-78
[52] = system: SR
[53] = system: SW-620
[54] = system: TK-10
[55] = system: U-251
[56] = system: UACC-257
[57] = system: UACC-62
[58] = system: UO-31

CCOC(=O)C(=O)C=P(c1ccccc1)(c1ccccc1)c1ccccc1 was tested, and the GI50 [1] was > 100 µM (inactive), the GI50 [2] was > 100 µM (inactive) and the GI50 [3] was > 100 µM (inactive). The GI50 [4] was > 100 µM (inactive), the GI50 [5] was > 100 µM (inactive) and the GI50 [6] was > 100 µM (inactive). The GI50 [7] was > 100 µM (inactive), the GI50 [8] was > 100 µM (inactive) and the GI50 [9] was > 100 µM (inactive). For the same compound, the GI50 [10] was > 100 µM (inactive), the GI50 [11] was > 100 µM (inactive) and the GI50 [12] was > 100 µM (inactive). The GI50 [13] was > 100 µM (inactive), the GI50 [14] was greater than 100 µM and the GI50 [15] was > 100 µM (inactive). For the same compound, the GI50 [16] was > 100 µM (inactive), the GI50 [17] was > 100 µM (inactive) and the GI50 [18] was > 100 µM (inactive). For the same compound, the GI50 [19] was > 100 µM (inactive), the GI50 [20] was > 100 µM (inactive) and the GI50 [21] was > 100 µM (inactive). For the same compound, the GI50 [22] was > 100 µM (inactive), the GI50 [23] was > 100 µM (inactive) and the GI50 [24] was > 100 µM (inactive). The GI50 [25] was > 100 µM (inactive), the GI50 [26] was > 100 µM (inactive) and the GI50 [27] was > 100 µM (inactive). The GI50 [28] was > 100 µM (inactive), the GI50 [29] was > 100 µM (inactive) and the GI50 [30] was > 100 µM (inactive). The GI50 [31] was > 100 µM (inactive), the GI50 [32] was 34.6 µM (inactive) and the GI50 [33] was > 100 µM (inactive). The GI50 [34] was > 100 µM (inactive), the GI50 [35] was > 100 µM (inactive) and the GI50 [36] was > 100 µM (inactive). For the same compound, the GI50 [37] was > 100 µM (inactive), the GI50 [38] was > 100 µM (inactive) and the GI50 [39] was > 100 µM (inactive). The GI50 [40] was > 100 µM (inactive), the GI50 [41] was > 100 µM (inactive) and the GI50 [42] was > 100 µM (inactive). For the same compound, the GI50 [43] was > 100 µM (inactive), the GI50 [44] was > 100 µM (inactive) and the GI50 [45] was > 100 µM (inactive). The GI50 [46] was > 100 µM (inactive), the GI50 [47] was > 100 µM (inactive) and the GI50 [48] was > 100 µM (inactive). The GI50 [49] was > 100 µM (inactive), the GI50 [50] was > 100 µM (inactive) and the GI50 [51] was > 100 µM (inactive). The GI50 [52] was > 100 µM (inactive), the GI50 [53] was > 100 µM (inactive) and the GI50 [54] was > 100 µM (inactive). The GI50 [55] was > 100 µM (inactive), the GI50 [56] was > 100 µM (inactive) and the GI50 [57] was > 100 µM (inactive). The GI50 [58] was > 100 µM (inactive).
